Earlier results on 2 compounds are cited in patent US6645974B2, “Androgen receptor modulators and methods for use thereof” (Merck & Co., Inc., priority 2001, dated 2003).

Where a name gives a salt, the structure may show the parent alone.

For series [1] the following is noted: after 7 years of treatment.
The conditions of series [2]: postmenopausal osteoporotic women, median of 22 months of treatment.

On to `NCCCC(O)(P(=O)(O)O)P(=O)(O)O` [alendronate, 4-amino-1-hydroxybutylidene-1,1-bisphosphonic acid monosodium salt, trihydrate], for which the “increase in spinal BMD” value in series [1] was not above 11%.
As for “hPTH(1-34): human parathyroid hormone 1-34 fragment (SVSEIQLMHNLGKHLNSMERVEWLRKKLQDVHNF; Parathyroid hormone; UniProt P01270 32-65, looked up, fragment)”, in series [2], the “reduction in nonvertebral fractures” value is reported as 54% and the “reduction in spine fractures” value was not below 65%.
